Measured values published in ChEMBL document CHEMBL5661943, “ASAP - In vitro antiviral effect” (2024).

Columns and labels:
dengue virus type 2 [1] = assay: Functional CPE-based assay to measure dose dependent changes in antiviral-drug inhibitory efficacy against Dengue virus type 2 New Guinea C in Huh7 cells. Cells are treated with antiviral candidates that are serially diluted. EC50 is reported via analysis of MTT/MTS assay as a readout of CPE. The assay has been performed by National Institute of Allergy and Infectious Diseases.; assay type: organism-based, Homo sapiens; details: Huh-7
Zika virus [2] = assay: EC50 is reported via analysis of immunofluorescence staining. The assay has been performed by Icahn School of Medicine at Mount Sinai.; assay type: functional, organism-based, Chlorocebus sabaeus, VeroE6/TMPRSS2; details: for EC90: Baseline response 0 %, Maximum response 100 %, P-gp concentration 2 uM, P-gp inhibitor Elacidar
dengue virus type 2 [3] = assay: (§1) Functional immunofluorescence assay to measure dose dependent changes in antiviral-drug inhibitory efficacy against Dengue virus type 2 Thailand/16681/84 in Vero E6/TMPRSS2 cells. Cells are treated with antiviral candidates that are serially diluted, following infection, cells are fixed. EC50 is reported via analysis of immunofluorescence staining. The assay has been performed by Icahn School of Medicine at Mount Sinai.; assay type: organism-based, Chlorocebus sabaeus
Zika virus [4] = assay: as §1, with “Zika” for “Dengue”, “PRVABC59” for “type 2 Thailand/16681/84”; assay type: organism-based, Chlorocebus sabaeus
dengue virus type 2 [5] = assay: Functional assay to measure dose dependent changes in antiviral-drug inhibitory efficacy against Dengue virus type 2 New Guinea C in Vero E6 miRFP670 cells (cotreated with P-gp inhibitor, CP100356). Cells are treated with antiviral candidates that are serially diluted, following infection, cells are fixed. EC50 is reported via analysis of fluorescence intensity using high-content imager. The …; assay type: organism-based, Chlorocebus sabaeus, Vero C1008; details: Dengue virus
dengue virus type 2 [6] = assay: as §1, with “cells (cotreated with P-gp inhibitor, Elacridar).” for “cells.”; assay type: organism-based, Chlorocebus sabaeus, VeroE6/TMPRSS2; details: for EC90: Baseline response 0 %, Maximum response 100 %, P-gp concentration 2 uM, P-gp inhibitor Elacidar

Question: With `CCCCCC(=O)N[C@H](C(=O)NCc1cccc(CN)c1)c1ccc(OCc2ccccc2)cc1` as the compound, how does the EC50 (dengue virus type 2 [1]) read?
Answer: The EC50 was greater than 18 µM.

Question: With `CCCCCC(=O)N[C@H](C(=O)Nc1ccc2[nH]ncc2c1)c1ccc(OCc2ccccc2)cc1` as the compound, how does the EC50 (dengue virus type 2 [1]) read?
Answer: The EC50 was 6.2 µM.

Question: How did the EC50 (dengue virus type 2 [1]) turn out when `CCCCCC(=O)N[C@H](C(=O)Nc1ccc(C(N)=O)cc1)c1ccc(OCc2ccccc2)cc1` was run?
Answer: The EC50 was greater than 32 µM.

Question: For `NCc1ccc(-c2ncc(OCC3CCNCC3)nc2-c2ccc(C3CCOCC3)cc2)cc1`, which EC50 (dengue virus type 2 [1]) is on record?
Answer: The EC50 was greater than 32 µM.

Question: `CCCCCC(=O)N[C@H](C(=O)N1CCCCC1)c1ccc(OCc2ccccc2)cc1` was tested. Which EC50 (dengue virus type 2 [1]) did it give?
Answer: Its EC50 is greater than 19 µM.

Question: Which results are given for `O=C(Nc1cc(Cl)cc(C(=O)Nc2ccc3c(c2)CNC3)c1)OCc1ccccc1`?
Answer: EC90 (Zika virus [2]; Hill slope -10.107, Maximum measured 106.671 %, Minimum measured 12.006 %, R squared 0.759): > 5.56 µM; EC50 (Zika virus [2]; Zika virus, VeroE6/TMPRSS2): > 3.33 µM; EC90 (Zika virus [2]; Zika virus, VeroE6/TMPRSS2, Hill slope 0.615, Maximum measured 150.152 %, Minimum measured 64.245 %, R squared 0.072): > 3.33 µM; EC50 (Zika virus [2]; veroe6/tmprss2): 4.56 µM; EC50 (dengue virus type 2 [3]; VeroE6/TMPRSS2): 610 nM; EC90 (dengue virus type 2 [3]; VeroE6/TMPRSS2, Baseline response 0 %, Hill slope -0.704, Maximum measured 114.373 %, Maximum response 100 %, Minimum measured 21.903 %, R squared 0.634): > 5.56 µM; EC50 (Zika virus [4]; VeroE6/TMPRSS2): > 50 µM; EC90 (Zika virus [4]; VeroE6/TMPRSS2, Maximum measured 887.776 %, Minimum measured 72.98 %): > 50 µM; EC50 (dengue virus type 2 [5]; Vero C1008): > 50 µM; EC90 (dengue virus type 2 [5]; Vero C1008, Maximum measured 108.699 %, Minimum measured 64.199 %, P-gp concentration 500 nM, P-gp inhibitor CP100356): > 50 µM; EC90 (dengue virus type 2 [6]; Hill slope -0.262, Maximum measured 88.903 %, Minimum measured 51.493 %, R squared 0.387): > 5.56 µM; EC50 (dengue virus type 2 [6]; Dengue virus, VeroE6/TMPRSS2): > 3.33 µM; EC90 (dengue virus type 2 [6]; Dengue virus, VeroE6/TMPRSS2, Hill slope 0.742, Maximum measured 298.531 %, Minimum measured 53.657 %, R squared 0.04): > 3.33 µM; EC50 (dengue virus type 2 [6]; veroe6/tmprss2): > 5.56 µM

Question: Which EC50 (dengue virus type 2 [1]) does the source give for `NCc1cccc(NC(=O)C[C@@H](NC(=O)OCc2ccccc2)c2ccc(OCc3ccccc3)cc2)c1` here?
Answer: The EC50 was greater than 6.1 µM.
